# Assay results published in patent publication US9274116B2, “Drug selection for breast cancer therapy using antibody-based arrays” (NESTEC S.A., priority 2008, dated 2016).
# Columns and labels:
# ER = molecular target: T1, ER (Homo sapiens, UniProt P03372); experiment: Tumor cell (CTC/biopsy) pathway profile on antibody array: ER expression; format: in vivo; settings: Patient 4008 (High AIB1; ER+/PR+/ErbB2−), tumor cells on re-biopsy
# T1 construct: pathways active in circulating tumor cells (CTCs) from blood or cancer cells obtained from a needle biopsy; endogenous in cells; host or cells: patient's circulating tumour cells or biopsy-derived breast cancer cells
# T1 sequence (P03372 whole entry): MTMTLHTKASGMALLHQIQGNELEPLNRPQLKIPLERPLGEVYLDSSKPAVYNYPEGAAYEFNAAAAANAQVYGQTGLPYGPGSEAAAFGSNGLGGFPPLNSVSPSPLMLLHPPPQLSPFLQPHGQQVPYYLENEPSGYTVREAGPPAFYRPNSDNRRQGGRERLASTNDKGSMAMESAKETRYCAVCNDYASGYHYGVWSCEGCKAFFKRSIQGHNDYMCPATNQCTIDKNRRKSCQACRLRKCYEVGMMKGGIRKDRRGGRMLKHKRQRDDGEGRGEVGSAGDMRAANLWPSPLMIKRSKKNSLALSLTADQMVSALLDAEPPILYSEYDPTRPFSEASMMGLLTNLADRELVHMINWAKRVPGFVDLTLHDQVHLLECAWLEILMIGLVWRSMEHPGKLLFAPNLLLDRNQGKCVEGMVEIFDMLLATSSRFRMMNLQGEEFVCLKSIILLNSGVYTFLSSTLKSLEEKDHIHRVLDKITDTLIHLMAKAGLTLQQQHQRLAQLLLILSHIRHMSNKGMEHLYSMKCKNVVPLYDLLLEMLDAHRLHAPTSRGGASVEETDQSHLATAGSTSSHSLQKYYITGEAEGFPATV
# Procedure: (§1) The incubation was for 2 hours at room temperature. • 5) Alternatively, the detection step utilized a biotin-conjugate of the monoclonal antibody recognizing phosphorylated EGFR. In these instances, after six washes an additional sequential step of incubation with streptavidin-HRP for 1 hour was included. • 6) Alternatively, the detection step utilized an oligonucleotide-mediated glucose oxidase (GO) conjugate of the anti-EGFR antibody.
# (§2) In brief, the activation levels of different components of the ErbB and nuclear hormone receptor pathways in CTCs or biopsy-derived cancer cells can be determined in the presence or absence of different combinations of test therapeutic agents.
# ER (Ser 118) = molecular target: T2, ER (Ser 118) (Homo sapiens, UniProt P03372); experiment: Tumor cell pathway profile: ER (Ser 118) phosphorylation; format: in vivo; settings: Patient 4008 (High AIB1; ER+/PR+/ErbB2−), tumor cells on re-biopsy
# T2 construct: pathways active in circulating tumor cells (CTCs) from blood or cancer cells obtained from a needle biopsy; endogenous in cells; host or cells: patient's circulating tumour cells or biopsy-derived breast cancer cells
# T2 sequence (P03372 whole entry): as above
# Procedure: as §1, §2
# ER (Ser 167) = molecular target: T3, ER (Ser 167) (Homo sapiens, UniProt P03372); experiment: Tumor cell pathway profile: ER (Ser 167) phosphorylation; format: in vivo; settings: Patient 4008 (High AIB1; ER+/PR+/ErbB2−), tumor cells on re-biopsy
# T3 construct: pathways active in circulating tumor cells (CTCs) from blood or cancer cells obtained from a needle biopsy; endogenous in cells; host or cells: patient's circulating tumour cells or biopsy-derived breast cancer cells
# T3 sequence (P03372 whole entry): as above
# Procedure: as §1, §2
# ER:AIB1 Complex = molecular target: T4, ER:AIB1 Complex (Homo sapiens, UniProt P03372); experiment: Tumor cell pathway profile: ER:AIB1 complex; format: in vivo; settings: Patient 4008 (High AIB1; ER+/PR+/ErbB2−), tumor cells on re-biopsy
# T4 construct: pathways active in circulating tumor cells (CTCs) from blood or cancer cells obtained from a needle biopsy; endogenous in cells; host or cells: patient's circulating tumour cells or biopsy-derived breast cancer cells
# T4 sequence (P03372 whole entry, one chain of several): as the sequence (P03372 whole entry) above
# Procedure: as §1, §2
# ER:N-CoR Complex = molecular target: T5, ER:N-CoR Complex (Homo sapiens, UniProt P03372); experiment: Tumor cell pathway profile: ER:N-CoR complex; format: in vivo; settings: Patient 4008 (High AIB1; ER+/PR+/ErbB2−), tumor cells on re-biopsy
# T5 construct: pathways active in circulating tumor cells (CTCs) from blood or cancer cells obtained from a needle biopsy; endogenous in cells; host or cells: patient's circulating tumour cells or biopsy-derived breast cancer cells
# Procedure: as §1, §2
# Progesterone Receptor = experiment: Tumor cell pathway profile: Progesterone Receptor; format: in vivo, human; settings: tumor cells on re-biopsy
# Procedure: as §1
# (§3) The exemplary patient profiles shown below in Tables 4-22 illustrate how an analysis of the pathways active in circulating tumor cells (CTCs) from blood or cancer cells obtained from a needle biopsy can be used to help physicians decide upon an effective course of treatment for a breast tumor, e.g., neoadjuvant treatment prior to surgery to reduce the size of the breast tumor or treatment in patients with locally recurrent or metastatic breast cancer. In brief, the activation levels of different components of the ErbB and nuclear hormone receptor pathways in CTCs or biopsy-derived cancer cells can be determined in the presence or absence of different combinations of test therapeutic agents.
# IGF-1R = experiment: Tumor cell pathway profile: IGF-1R; format: in vivo, human; settings: tumor cells on re-biopsy
# Procedure: as §1, §2
# ErbB1 = molecular target: T6, ErbB1 (Homo sapiens, UniProt P00533); experiment: Tumor cell pathway profile: ErbB1; format: in vivo; settings: Patient 4008 (High AIB1; ER+/PR+/ErbB2−), tumor cells on re-biopsy
# T6 construct: pathways active in circulating tumor cells (CTCs) from blood or cancer cells obtained from a needle biopsy; endogenous in cells; host or cells: patient's circulating tumour cells or biopsy-derived breast cancer cells
# Procedure: as §1, §2
# ErbB2 = molecular target: T7, ErbB2 (Homo sapiens, UniProt P04626); experiment: Tumor cell pathway profile: ErbB2; format: in vivo; settings: tumor cells on re-biopsy
# T7 construct: pathways active in circulating tumor cells (CTCs) from blood or cancer cells obtained from a needle biopsy; endogenous in cells; host or cells: patient's circulating tumour cells or biopsy-derived breast cancer cells
# T7 sequence (P04626 23-1255): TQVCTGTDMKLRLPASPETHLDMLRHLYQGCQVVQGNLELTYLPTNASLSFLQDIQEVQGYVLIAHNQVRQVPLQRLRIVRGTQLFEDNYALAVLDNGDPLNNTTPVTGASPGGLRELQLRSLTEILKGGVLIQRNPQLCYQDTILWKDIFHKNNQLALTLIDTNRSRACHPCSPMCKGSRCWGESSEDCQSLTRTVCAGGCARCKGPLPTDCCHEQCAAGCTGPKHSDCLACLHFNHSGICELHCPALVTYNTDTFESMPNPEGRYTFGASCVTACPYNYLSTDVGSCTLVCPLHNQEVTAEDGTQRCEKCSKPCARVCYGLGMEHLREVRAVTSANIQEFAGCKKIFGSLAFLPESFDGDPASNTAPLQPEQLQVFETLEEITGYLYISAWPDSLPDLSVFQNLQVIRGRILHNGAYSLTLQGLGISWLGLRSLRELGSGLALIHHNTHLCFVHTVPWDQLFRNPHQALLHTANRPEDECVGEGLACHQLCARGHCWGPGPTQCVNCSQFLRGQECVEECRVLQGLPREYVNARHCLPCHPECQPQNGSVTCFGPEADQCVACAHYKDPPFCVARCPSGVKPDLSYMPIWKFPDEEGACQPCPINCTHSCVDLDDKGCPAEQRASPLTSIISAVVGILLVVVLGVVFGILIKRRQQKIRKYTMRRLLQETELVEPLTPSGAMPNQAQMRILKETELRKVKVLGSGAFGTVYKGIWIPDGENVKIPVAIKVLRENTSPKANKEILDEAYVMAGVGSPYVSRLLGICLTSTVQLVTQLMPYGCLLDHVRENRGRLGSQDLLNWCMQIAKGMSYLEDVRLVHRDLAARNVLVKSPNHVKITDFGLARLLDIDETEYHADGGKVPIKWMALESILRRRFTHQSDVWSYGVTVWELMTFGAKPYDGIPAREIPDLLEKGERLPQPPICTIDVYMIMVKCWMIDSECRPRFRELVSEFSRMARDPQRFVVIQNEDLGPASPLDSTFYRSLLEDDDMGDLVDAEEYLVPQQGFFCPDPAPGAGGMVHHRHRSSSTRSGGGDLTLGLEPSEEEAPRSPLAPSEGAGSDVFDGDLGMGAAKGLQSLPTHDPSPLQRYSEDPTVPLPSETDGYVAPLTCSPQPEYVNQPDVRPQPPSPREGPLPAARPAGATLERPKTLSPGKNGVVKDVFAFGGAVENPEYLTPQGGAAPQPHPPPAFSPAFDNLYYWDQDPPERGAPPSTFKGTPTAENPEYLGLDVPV
# Procedure: as §1, §2
# ErbB3 = experiment: Tumor cell pathway profile: ErbB3; format: in vivo, human; settings: tumor cells on re-biopsy
# Procedure: as §1, §3
# ErbB4 = molecular target: T8, ErbB4 (Homo sapiens, UniProt Q15303); experiment: Tumor cell pathway profile: ErbB4; format: in vivo; settings: tumor cells on re-biopsy
# T8 construct: pathways active in circulating tumor cells (CTCs) from blood or cancer cells obtained from a needle biopsy; endogenous in cells; host or cells: patient's circulating tumour cells or biopsy-derived breast cancer cells
# T8 sequence (Q15303 26-1308): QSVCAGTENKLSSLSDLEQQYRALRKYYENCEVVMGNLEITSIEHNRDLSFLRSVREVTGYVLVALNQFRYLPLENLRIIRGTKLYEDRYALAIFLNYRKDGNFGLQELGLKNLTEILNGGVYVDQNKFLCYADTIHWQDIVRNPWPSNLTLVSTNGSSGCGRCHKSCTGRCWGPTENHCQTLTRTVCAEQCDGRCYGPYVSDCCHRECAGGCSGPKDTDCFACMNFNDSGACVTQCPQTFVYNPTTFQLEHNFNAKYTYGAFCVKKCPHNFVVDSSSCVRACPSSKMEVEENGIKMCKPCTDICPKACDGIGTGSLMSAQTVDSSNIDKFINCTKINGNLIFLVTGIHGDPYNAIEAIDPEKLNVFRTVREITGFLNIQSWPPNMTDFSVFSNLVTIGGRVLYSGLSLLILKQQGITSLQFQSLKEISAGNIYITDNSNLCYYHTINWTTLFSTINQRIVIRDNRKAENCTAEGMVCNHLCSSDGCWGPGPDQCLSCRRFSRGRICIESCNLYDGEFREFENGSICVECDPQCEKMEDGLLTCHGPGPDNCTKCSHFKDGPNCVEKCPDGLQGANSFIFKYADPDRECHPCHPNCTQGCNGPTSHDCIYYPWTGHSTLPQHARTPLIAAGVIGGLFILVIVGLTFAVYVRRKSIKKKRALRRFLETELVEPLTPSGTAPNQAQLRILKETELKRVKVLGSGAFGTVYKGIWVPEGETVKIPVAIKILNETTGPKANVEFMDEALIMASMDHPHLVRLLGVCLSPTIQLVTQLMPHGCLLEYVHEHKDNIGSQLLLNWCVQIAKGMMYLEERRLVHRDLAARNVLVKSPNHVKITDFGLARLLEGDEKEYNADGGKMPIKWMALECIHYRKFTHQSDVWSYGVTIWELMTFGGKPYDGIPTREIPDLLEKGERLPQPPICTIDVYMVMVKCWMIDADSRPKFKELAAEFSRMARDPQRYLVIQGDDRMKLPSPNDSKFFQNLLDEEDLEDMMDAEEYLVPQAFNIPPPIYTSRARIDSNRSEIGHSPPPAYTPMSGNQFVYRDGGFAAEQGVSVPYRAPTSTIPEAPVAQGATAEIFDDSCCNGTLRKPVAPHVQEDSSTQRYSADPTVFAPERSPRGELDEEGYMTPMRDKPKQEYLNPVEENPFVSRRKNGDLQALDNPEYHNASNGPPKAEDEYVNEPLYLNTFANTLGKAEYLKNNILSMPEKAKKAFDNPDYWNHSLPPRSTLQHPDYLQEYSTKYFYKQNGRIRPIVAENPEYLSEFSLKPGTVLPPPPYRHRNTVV
# Procedure: as §1, §2
# Shc = experiment: Tumor cell pathway profile: Shc; format: in vivo, human; settings: tumor cells on re-biopsy
# Procedure: as §1, §3
# PI3K = experiment: Tumor cell pathway profile: PI3K; format: in vivo, human; settings: tumor cells on re-biopsy
# Procedure: as §1, §2
# Erk = experiment: Tumor cell pathway profile: Erk; format: in vivo, human; settings: tumor cells on re-biopsy
# Procedure: as §1, §2
# Rsk = experiment: Tumor cell pathway profile: Rsk; format: in vivo, human; settings: tumor cells on re-biopsy
# Procedure: as §1, §2
# Akt = experiment: Tumor cell pathway profile: Akt; format: in vivo, human; settings: tumor cells on re-biopsy
# Procedure: as §1, §2
# P70S6K = experiment: Tumor cell pathway profile: P70S6K; format: in vivo, human; settings: tumor cells on re-biopsy
# Procedure: as §1, §2
# Ki67 = experiment: Tumor cell pathway profile: Ki67; format: in vivo, human; settings: tumor cells on re-biopsy
# Procedure: as §1, §3
# breast tumor = experiment: Response of breast cancer patient to therapy selected from pathway profile; format: in vivo, human
# Excerpt: as §3
# In brief, the activation levels of different components of signal transduction pathways such as the ErbB receptor pathways in CTCs or biopsy-derived cancer cells can be determined in the presence or absence of different combinations of test therapeutic agents.
# PTEN = experiment: Tumor cell pathway profile: PTEN; format: in vivo, human; settings: Patient 4001 (ER+/PR+/ErbB2−), tumor cells on re-biopsy
# Procedure: as §1, §3
# TOPO II = experiment: Tumor cell pathway profile: TOPO II; format: in vivo, human; settings: Patient 4001 (ER+/PR+/ErbB2−), tumor cells on re-biopsy
# Procedure: as §1, §3
# pHER-2 = experiment: Multiplexed proximity assay, per-cell RTK activation in cell lines: pHER-2; format: cell-based; settings: for Per Cell-RTK Activation (RFU/cell) pHER2: stimulation with the ligand, calculated from number of cells required to detect EC20 (12000 RFU)
# Procedure: SKBR3, MDA-MB-468, T47D, and BT474 cell lines were obtained from ATCC. Cells were grown in the following growth media in 100 mm tissue culture plates at 37° C. in 5% CO2: SKBR3—MacCoy's 5A medium with 10% FBS; MDA-MB-468—DMEM, 10% FBS; BT474—DMEM, 10% FBS; T47D—RPMI 1640, 10% FBS, 0.2 U/ml bovine insulin. Cells were harvested at 70-80% confluency with gentle detachment process (trypsin treatment+subsequent inactivation) and were subsequently counted and washed with 1×PBS. […] Subsequently, stimulated cells were washed with 1×PBS and then were lysed and kept on ice for 30 min.
# Capture antibodies were diluted in 1×PBS with detergent. A contact microarray printer (Genetix) was utilized to print on 16 pad nitrocellulose FAST slides (Whatman). The spot diameter was approximately 175 μm and printed slides were kept in a desiccated chamber at 4° C.
# Slides were incubated with blocking buffer for 1 hr and then washed 3× with TBST buffer. Cell lysates were then added onto each pad for overnight incubation at room temperature (RT). Upon the completion of the primary binding, lysates were aspirated and then each pad was washed several times with TBST. Then, secondary detector antibodies (conjugated with GO or HRP) were added to each pad for 2 hr at RT. Unbound secondary detector antibodies were removed by washing with TBST, and signal amplification buffer containing glucose and biotinylated tyramide was added to each pad for 15 min. After removing excess biotinylated tyramide, Alexa-647 conjugated strepavidin was added for the signal detection.
# Quantitation was performed using Perkin Elmer ScanArray Express software and the data obtained was corrected for local and global background intensities. A GenePixArray List (GAL) file was used to provide descriptive name and identifier information and was incorporated into the image analysis output file. Signals from triplicate spots were averaged and data were normalized to correct for pad to pad variability. A nonlinear regression model was used for the quantitation of cell-equivalent amount for corresponding relative fluorescence unit (RFU) values. The data were fit to a five parameter Hill equation to generate the standard curves. Each curve was validated against known controls. A known number of cells was predicted for the appropriate dilution, corresponding to the curve with the highest slope at the intensity of the unknown sample.
# Analytical specificity of the collaborative immunoassay format described herein was >99.99% based on a comparative study performed on multiple cell lines with various RTK levels. […] The RTK activation profile for T47D cells, which express some level of ErbB2 and ErbB3 but an extremely low amount of ErbB1, is shown in FIG. 22. The number of cells required to detect EC20 (12000 RFU) pHER-1 or pHER-2 were used to calculate per-cell RTK activation (RFU/cell) as shown in Table 43. When MB468 cells expressing an extremely low amount of HER-2 were used, having ˜1000 cells per reaction pad was not sufficient to achieve EC20, and this type of low or non-detectable signal in other cell lines was indicated as “ND” in Table 43. […] This collaborative immunoassay format ensures ultra-specificity while maintaining its sub-single cell level (10^4 to 10^5) molecular level assay sensitivity.
# pHER-1 = molecular target: T9, pHER-1 (Homo sapiens, UniProt P00533); experiment: Multiplexed proximity assay, per-cell RTK activation in cell lines: pHER-1; format: cell-based; settings: stimulation with the ligand, calculated from number of cells required to detect EC20 (12000 RFU)
# T9 construct: host or cells: SKBR3, MDA-MB-468, T47D, BT474
# Procedure: Slides were incubated with blocking buffer for 1 hr and then washed 3× with TBST buffer. Cell lysates were then added onto each pad for overnight incubation at room temperature (RT). Upon the completion of the primary binding, lysates were aspirated and then each pad was washed several times with TBST. Then, secondary detector antibodies (conjugated with GO or HRP) were added to each pad for 2 hr at RT. […]
# Quantitation was performed using Perkin Elmer ScanArray Express software and the data obtained was corrected for local and global background intensities. […] A nonlinear regression model was used for the quantitation of cell-equivalent amount for corresponding relative fluorescence unit (RFU) values. […]
# p95ErbB2 = settings: T47D cells, FIG. 17
# Procedure: The slide is incubated for two hours at room temperature. • 4) After six washes with TBS-Tween, 80 μl of detection antibodies for the proximity assay diluted in TBS-Tween/2% BSA/1% FBS is added to the slides. The detection antibodies used are: (1) an anti-ErbB2 antibody specific for the intracellular domain of ErbB2 that is directly conjugated to glucose oxidase (GO); and (2) a monoclonal antibody recognizing phosphorylated ErbB2 that is directly conjugated to horseradish peroxidase (HRP). The incubation is for 2 hours at room temperature. • 5) For signal amplification, 80 μl of biotin-tyramide at 5 μg/ml is added and reacted for 15 minutes along with 50 mM glucose. The slide is washed six times with TBS-Tween, twice with 20% DMSO/TBS-Tween, and once with TBS. […] The slide is then washed twice, dried for 5 minutes, and scanned on a microarray scanner (Perkin-Elmer, Inc.). • 6) As a non-limiting example, slide 1 can report on total ErbB2 activation while slide 2 can report on truncated ErbB2 activation.
# The slide is incubated for two hours at room temperature. • 4) After six washes with TBS-Tween, 80 μl of detection antibodies for the assay diluted in TBS-Tween/2% BSA/1% FBS is added to the slides. The detection antibody used is an anti-ErbB2 antibody specific for the intracellular domain of ErbB2 that is directly conjugated to HRP. […]
# [1] = Patient 4008 (High AIB1; ER+/PR+/ErbB2−)
compound,measurement,setting,value
"C[C@]12CC[C@@H]3c4ccc(O)cc4C[C@@H](CCCCCCCCC[S+]([O-])CCCC(F)(F)C(F)(F)F)[C@H]3[C@@H]1CC[C@@H]2O (some centres unmarked) [Fulvestrant, fulvestrant]",ER: Treatment with Fulvestrant,ER,Low
same,ER (Ser 118): Treatment with Fulvestrant,ER (Ser 118),Weak
same,ER (Ser 167): Treatment with Fulvestrant,ER (Ser 167),Weak
same,ER: AIB1 Complex: Treatment with Fulvestrant,ER:AIB1 Complex,Weak
same,ER: N-CoR Complex: Treatment with Fulvestrant,ER:N-CoR Complex,Weak
same,Progesterone Receptor: Treatment with Fulvestrant,Progesterone Receptor; [1],Low
same,IGF-1R: Treatment with Fulvestrant,IGF-1R; [1],Weak
same,ErbB1: Treatment with Fulvestrant,ErbB1,Weak
same,ErbB2: Treatment with Fulvestrant,ErbB2; [1],Weak
same,ErbB3: Treatment with Fulvestrant,ErbB3; [1],Weak
same,ErbB4: Treatment with Fulvestrant,ErbB4; [1],Weak
same,Shc: Treatment with Fulvestrant,Shc; [1],Weak
same,PI3K: Treatment with Fulvestrant,PI3K; [1],Weak
same,Erk: Treatment with Fulvestrant,Erk; [1],Weak
same,Rsk: Treatment with Fulvestrant,Rsk; [1],Weak
same,Akt: Treatment with Fulvestrant,Akt; [1],Weak
same,P70S6K: Treatment with Fulvestrant,P70S6K; [1],Weak
same,Ki67: Treatment with Fulvestrant,Ki67; [1],Weak
same,Patient response to treatment,breast tumor; [1],responded
"CC/C(=C(\c1ccccc1)c1ccc(OCCN(C)C)cc1)c1ccccc1 [Tamoxifen, tamoxifen]",Progesterone Receptor: Treatment with Tamoxifen,Progesterone Receptor; Patient 4001 (ER+/PR+/ErbB2−),Medium
same,IGF-1R: Treatment with Tamoxifen,IGF-1R; Patient 4001 (ER+/PR+/ErbB2−),Weak
same,ErbB2: Treatment with Tamoxifen,ErbB2; Patient 4001 (ER+/PR+/ErbB2−),Weak
same,ErbB3: Treatment with Tamoxifen,ErbB3; Patient 4001 (ER+/PR+/ErbB2−),Weak
same,ErbB4: Treatment with Tamoxifen,ErbB4; Patient 4001 (ER+/PR+/ErbB2−),Weak
same,PTEN: Treatment with Tamoxifen,PTEN,Medium
same,Shc: Treatment with Tamoxifen,Shc; Patient 4001 (ER+/PR+/ErbB2−),Weak
same,PI3K: Treatment with Tamoxifen,PI3K; Patient 4001 (ER+/PR+/ErbB2−),Weak
same,Erk: Treatment with Tamoxifen,Erk; Patient 4001 (ER+/PR+/ErbB2−),Weak
same,Rsk: Treatment with Tamoxifen,Rsk; Patient 4001 (ER+/PR+/ErbB2−),Weak
same,Akt: Treatment with Tamoxifen,Akt; Patient 4001 (ER+/PR+/ErbB2−),Weak
same,P70S6K: Treatment with Tamoxifen,P70S6K; Patient 4001 (ER+/PR+/ErbB2−),Weak
same,Ki67: Treatment with Tamoxifen,Ki67; Patient 4001 (ER+/PR+/ErbB2−),Weak
same,TOPO II: Treatment with Tamoxifen,TOPO II,Medium
same,Patient response to treatment,"breast tumor; Patient 4001 (ER+/PR+/ErbB2−), premenopausal, node negative",responded
"EGF: epidermal growth factor, stimulatory growth factor",Per Cell-RTK Activation (RFU/cell) pHER2,pHER-2; BT 474 cells,1200 RFU/cell
same,pHER-2,pHER-2; MDA MB 468 cells stimulated with EGF,do not show any detectable
same,Per Cell-RTK Activation (RFU/cell) pHER2,pHER-2; SKBR3 cells,1334 RFU/cell
same,Per Cell-RTK Activation (RFU/cell) pHER2,pHER-2; T47D cells,80 RFU/cell
heregulin,Per Cell-RTK Activation (RFU/cell) pHER1,pHER-1; MD AMB 468 cells,4000 RFU/cell
same,Per Cell-RTK Activation (RFU/cell) pHER1,pHER-1; SKBR3 cells,105 RFU/cell
same,Per Cell-RTK Activation (RFU/cell) pHER2,pHER-2; BT 474 cells,1200 RFU/cell
same,Per Cell-RTK Activation (RFU/cell) pHER2,pHER-2; SKBR3 cells,353 RFU/cell
same,Per Cell-RTK Activation (RFU/cell) pHER2,pHER-2; T47D cells,165 RFU/cell
same,p95ErbB2 phosphorylation,p95ErbB2,increased
